Assay results reported in paper PMC10751545 (Science (New York, N.Y.), 2023).
Read-outs that look alike come from different tables or passages of the source. One block for each compound: values may come before it.

Legend:
[1] = target: T1, GPR158 (Homo sapiens, UniProt Q5T848); assay: BRET-based cAMP biosensor screen in HEK293 cells expressing GPR158; format: cell-based; conditions: for cAMP change in cells expressing GPR158 relative to non-transfected cells: BRET cAMP biosensor
T1 sequence (Q5T848 24-1215): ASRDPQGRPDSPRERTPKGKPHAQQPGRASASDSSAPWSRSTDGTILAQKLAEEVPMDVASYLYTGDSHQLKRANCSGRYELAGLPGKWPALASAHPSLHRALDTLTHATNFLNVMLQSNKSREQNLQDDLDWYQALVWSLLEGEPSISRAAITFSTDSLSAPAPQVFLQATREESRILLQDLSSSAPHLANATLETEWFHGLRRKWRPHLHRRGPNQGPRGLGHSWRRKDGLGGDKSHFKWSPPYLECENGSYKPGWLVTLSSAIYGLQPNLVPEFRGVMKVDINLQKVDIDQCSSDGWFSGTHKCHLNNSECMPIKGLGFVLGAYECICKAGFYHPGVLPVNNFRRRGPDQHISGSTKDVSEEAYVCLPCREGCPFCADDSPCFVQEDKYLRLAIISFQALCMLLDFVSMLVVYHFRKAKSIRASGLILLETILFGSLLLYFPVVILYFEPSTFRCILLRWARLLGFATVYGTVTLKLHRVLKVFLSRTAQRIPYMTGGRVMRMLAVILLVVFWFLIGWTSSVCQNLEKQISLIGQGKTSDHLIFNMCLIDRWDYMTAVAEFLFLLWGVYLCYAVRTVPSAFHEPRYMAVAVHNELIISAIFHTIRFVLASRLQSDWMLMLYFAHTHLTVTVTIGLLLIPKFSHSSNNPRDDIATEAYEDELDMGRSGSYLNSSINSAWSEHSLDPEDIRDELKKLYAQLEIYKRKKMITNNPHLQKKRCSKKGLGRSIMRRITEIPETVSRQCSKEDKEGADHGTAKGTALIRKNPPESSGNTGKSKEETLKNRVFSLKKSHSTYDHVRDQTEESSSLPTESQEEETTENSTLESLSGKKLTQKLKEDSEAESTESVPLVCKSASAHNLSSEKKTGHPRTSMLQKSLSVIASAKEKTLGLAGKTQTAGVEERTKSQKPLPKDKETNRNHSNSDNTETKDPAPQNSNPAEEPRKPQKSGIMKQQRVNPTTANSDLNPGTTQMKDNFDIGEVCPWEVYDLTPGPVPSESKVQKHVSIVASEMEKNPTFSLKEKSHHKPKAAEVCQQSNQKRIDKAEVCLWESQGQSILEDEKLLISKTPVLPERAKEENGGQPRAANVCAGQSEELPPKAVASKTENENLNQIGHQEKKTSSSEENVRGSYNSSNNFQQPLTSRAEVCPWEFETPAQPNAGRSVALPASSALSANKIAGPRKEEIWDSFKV

[2] = target: T1, GPR158
[3] = target: T1, GPR158; assay: G protein activation by GPR158; format: cell-based; conditions: any G proteins tested
[4] = target: T1, GPR158; remark: listed apart in the source
[5] = target: T1, GPR158; remark: listed apart in the source
[6] = system: layer II-III neurons in the prelimbic cortex; assay: Slice electrophysiology, intrinsic excitability of cortical neurons; format: cell-based, mice
[7] = target: T2, GPR158-RGS7/Gβ5 complex (Homo sapiens, UniProt Q5T848); assay: BRET-based GAP assay; format: cell-based
T2 sequence (Q5T848 24-1215): T1 sequence (Q5T848 24-1215)
T2 sequence (P49802 1-495 partner): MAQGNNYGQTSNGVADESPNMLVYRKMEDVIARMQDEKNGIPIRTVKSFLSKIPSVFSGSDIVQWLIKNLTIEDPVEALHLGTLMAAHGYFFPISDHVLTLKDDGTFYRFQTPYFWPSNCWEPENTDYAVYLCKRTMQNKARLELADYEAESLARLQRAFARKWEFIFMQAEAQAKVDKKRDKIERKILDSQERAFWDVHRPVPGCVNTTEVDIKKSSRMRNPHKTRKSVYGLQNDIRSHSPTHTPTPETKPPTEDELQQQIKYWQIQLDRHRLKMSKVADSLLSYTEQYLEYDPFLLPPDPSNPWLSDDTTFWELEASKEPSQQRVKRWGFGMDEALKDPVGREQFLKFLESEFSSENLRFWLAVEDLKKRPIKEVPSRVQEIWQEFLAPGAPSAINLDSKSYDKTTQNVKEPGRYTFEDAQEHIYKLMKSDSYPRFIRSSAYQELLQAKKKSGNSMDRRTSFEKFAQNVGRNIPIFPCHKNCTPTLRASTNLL
T2 sequence (O14775 1-395 partner): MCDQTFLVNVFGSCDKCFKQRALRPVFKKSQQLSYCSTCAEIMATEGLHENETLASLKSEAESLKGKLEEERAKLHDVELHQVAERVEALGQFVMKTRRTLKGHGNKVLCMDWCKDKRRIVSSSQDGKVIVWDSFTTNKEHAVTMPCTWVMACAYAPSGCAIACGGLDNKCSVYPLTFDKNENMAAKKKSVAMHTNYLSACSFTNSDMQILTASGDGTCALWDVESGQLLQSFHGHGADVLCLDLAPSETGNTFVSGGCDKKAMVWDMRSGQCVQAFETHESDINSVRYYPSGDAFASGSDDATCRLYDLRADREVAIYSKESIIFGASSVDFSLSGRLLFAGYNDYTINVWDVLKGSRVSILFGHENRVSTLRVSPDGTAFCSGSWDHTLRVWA

[8] = target: T1, GPR158; assay: Binding competition, displacement of [3H]-glycine bound to GPR158
[9] = system: GPR158 R173A, E271A, and Y269A mutants

Structure (SMILES): NCC(=O)O [glycine]
cAMP change in cells expressing GPR158 relative to non-transfected cells [1]: significant decrease in cAMP
β-arrestin recruitment to GPR158 [2]: no significant response
activation of G proteins by GPR158 [3]: no significant activation
Kd ([4]; read-out: Kd of GPR158 for glycine, Scatchard analysis, membranes containing GPR158): ~3 µM
cAMP change in cells lacking GPR158 ([5]; U87 glioblastoma cells lacking GPR158, glycine 100μM): No glycine-induced changes in cAMP
cAMP change in cells expressing GPR158 ([5]; U87 glioblastoma cells, 10μM forskolin, glycine 100μM): cAMP decrease
resting membrane potential ([6]; layer II-III neurons): without changes
amount of current necessary to elicit the first action potential (rheobase) ([6]; layer II-III neurons, glycine 1mM): decreasing
number of action potentials ([6]; layer II-III neurons, glycine 1mM, synaptic blockade): significantly increased
intrinsic excitability of layer V neurons ([6]; layer V neurons, which do not express GPR158): did not produce any changes
excitability of layer II-III neurons in Gpr158 KO mice ([6]; prefrontal cortex, Gpr158 KO mice, glycine 1mM): failed to alter excitability
effect on Gαo deactivation, GPR158 co-expressed with RGS7/Gβ5 ([7]; 100μM): significantly decelerated Gαo deactivation
effect on baseline or RGS7/Gβ5-assisted Gαo deactivation without GPR158 ([7]; cells without GPR158, 100μM): no effect
IC50 ([8]; read-out: IC50, displacement of [3H]-glycine bound to GPR158): ~3 µM

effect on GPR158-mediated suppression of cAMP compared directly with glycine [1]: weaker than the effect of glycine
cAMP change in cells expressing GPR158 relative to non-transfected cells [1]: significant decrease in cAMP levels
activation of G proteins by GPR158 [3]: no significant activation
IC50 [7]: ~6 µM
IC50 [8]: ~6 µM
affinity relative to glycine ([8]; competition with [3H]-glycine): two-fold lower affinity
Structure (SMILES): NCCS(=O)(=O)O [taurine]
excitability (neuronal firing) of layer II-III neurons ([6]; taurine): small effects on neuronal firing

Structure (SMILES): NCC(=O)O [[^3H]-glycine, reference compound]
[3H]-glycine binding to mutants [9]: near complete loss
binding to GPR158-expressing cells ([4]; HEK293 cells expressing GPR158, across concentrations): significant binding
